Assay results: US20160120858A1 (ACADEMIA SINICA, priority 2014, published 2016)

How the values were obtained:
AMPAR = assay: AMPA-fEPSPs, input-output and paired pulse ratio, hippocampal slices; type: cell-based, mouse; conditions: 4 uM; for AMPA-fEPSPs: WT and KO; for Input-output relationship (AMPA-fEPSP slopes against fiber volley): WT and Shank2^−/− SC-CA1 synapses
Description: For electrophysiological experiments, sagittal hippocampal slices (400 uM thick for extracellular, 300 uM thick for intracellular recordings) of Shank2^-/- mice (or ZnT3^-/- mice) and their wild-type littermates were prepared using a vibratome (Leica VT1200) in ice-cold dissection buffer containing (in mM) 212 sucrose, 25 NaHCO3, 5 KCl, 1.25 NaH2PO4, 0.5 CaCl2, 3.5 MgSO4, 10 D-glucose, 1.25 L-ascorbic acid, and 2 Na-pyruvate bubbled with 95% 02/5% CO2. CA3 was removed to prevent epileptiform activity. Slices were restored for 1 hour in 32° C. in a normal artificial CSF (ACSF) (In units of mM: 124 NaCl, 2.5 kCl, 1 NaH2PO4, 25 NaHCO3, 10 glucose, 2 CaC12, 2 Mg504 oxidized by 95% 02/5% CO2) For the recording, a single slice was moved to and maintained in submerged-type chamber at 28° C., continuously perfused with ACSF (2 mL/minute) saturated with 95% 02/5% CO2. Stimulation and recording pipettes were pulled from borosilicate glass capillaries (Harvard Apparatus) using a micropipette electrode puller ([…]). For extracellular recordings, mouse hippocampal slices at the age of postnatal day 21 to 35 were used. Field excitatory postsynaptic potentials (fEPSPs) were recorded in the stratum radiatum of the hippocampal CA1 region using pipettes filled with ACSF (1 MΩ). fEPSP was amplified (Multiclamp 700B, Molecular Devices), and digitized (Digidata 1440A, Molecular Devices) for measurements. The Schaffer collateral pathway was stimulated every 20 seconds with pipettes filled with ACSF (0.3 to 0.5 MΩ). The stimulation intensity was adjusted to yield a half-maximal response, and three successive responses were averaged and expressed relative to the normalized baseline. To induce LTP, high frequency stimulation (100 Hz, 1 s) was applied after a stable baseline was acquired.

NMDAR = assay: Simultaneous NMDA- and AMPA-eEPSCs at −40 mV, patch-clamp, hippocampal slices; type: cell-based, mouse; conditions: for NMDA-eEPSCs (NMDAR function) at −40 mV: CQ 4 uM, 20 minutes, WT and Shank2^−/− SC-CA1 synapses
Description: For electrophysiological experiments, sagittal hippocampal slices (400 uM thick for extracellular, 300 uM thick for intracellular recordings) of Shank2^−/− mice (or ZnT3^−/− mice) and their wild-type littermates were prepared using a vibratome (Leica VT1200) in ice-cold dissection buffer containing (in mM) 212 sucrose, 25 NaHCO3, 5 KCl, 1.25 NaH2PO4, 0.5 CaCl2, 3.5 MgSO4, 10 D-glucose, 1.25 L-ascorbic acid, and 2 Na-pyruvate bubbled with 95% 02/5% CO2. CA3 was removed to prevent epileptiform activity. Slices were restored for 1 hour in 32° C. in a normal artificial CSF (ACSF) (In units of mM: 124 NaCl, 2.5 kCl, 1 NaH2PO4, 25 NaHCO3, 10 glucose, 2 CaC12, 2 Mg504 oxidized by 95% 02/5% CO2) For the recording, a single slice was moved to and maintained in submerged-type chamber at 28° C., continuously perfused with ACSF (2 mL/minute) saturated with 95% 02/5% CO2. Stimulation and recording pipettes were pulled from borosilicate glass capillaries (Harvard Apparatus) using a micropipette electrode puller (Narishege).
Whole-cell patch-clamp recordings of hippocampal CA1 pyramidal neurons were also made using a MultiClamp 700B amplifier (Molecular Devices) and Digidata 1440A (Molecular Devices). During whole-cell patch-clamp recordings, series resistance was monitored each sweep by measuring the peak amplitude of the capacitance currents in response to short hyperpolarizing step pulse (5 mV, 40 ms); only cells with a change in <25% were included in the analysis. For NMDA (N-Methyl-D-aspartate)/AMPA (alpha-amino-3-hydroxy-5-methylisoxazole-4-propionic acid) ratio experiments, mouse hippocampal slices at the age of postnatal day 17 to 25 were used. The recording pipettes (2.5 to 3.5 MΩ) were filled with an internal solution containing the following (in mM): 100 CsMeSO4, 10 TEA-Cl, 8 NaCl, 10 HEPES, 5 QX-314-C1, 2 Mg-ATP, 0.3 Na-GTP, 10 EGTA, with pH 7.25, 295 mOsm). CA1 pyramidal neurons were voltage-clamped at −70 mV, and EPSPs were evoked at every 15 sec. AMPAR-mediatedEPSCs were recorded at −70 mV, and 30 consecutive responses were recorded after stable baseline. After recording AMPAR-mediated EPSPs, holding potential was changed to +40 mV to record NMDA receptor-mediated EPSPs. NMDA component was measured at 60 ms after the stimulation. The NMDA/AMPA ratio was determined by dividing the mean value of 30 NMDA components of EPSPs by the mean value of 30 AMPAR-mediated EPSC peak amplitudes. […] For measuring AMPAR-mediated and NMDAR-mediated EPSCs together upon CQ treatment, pyramidal neurons were voltage-clamped at −40 mV, and EPSCs were evoked at every 15 sec. AMPAR-mediated EPSC was determined as a peak amplitude of EPSC, and NMDAR-mediated EPSC as a component at 60 ms after stimulation. NMDA/AMPA ratio at −40 mV was calculated by using both values, and monitored during the experimental process. […] Picrotoxin (100 uM) was always added to ACSF to block GABAA receptor-mediated currents.

For `Oc1c(I)cc(Cl)c2cccnc12` [clioquinol, 5-Chloro-7-Iodo-8-Hydroxyquinoline], the AMPA-fEPSPs (AMPAR) was “not affected”, the AMPA-fEPSPs (AMPAR; listed as CQ) was “has no effect on AMPA-fEPSPs” and the “Input-output relationship (AMPA-fEPSP slopes against fiber volley)” value (AMPAR) was “had no effect”. The “Input-output relationship (AMPA-fEPSP slopes against fiber volley)” value (AMPAR; listed as CQ) was “has no effect on the input-output relationship”, the “NMDA-eEPSCs (NMDAR function) at −40 mV” value (NMDAR) was “increased NMDA-eEPSCs” and the “NMDA-eEPSCs (NMDAR function) at −40 mV” value (NMDAR; listed as CQ) was “enhances NMDAR function”. For the same molecule, the “AMPA-eEPSCs at −40 mV” value (NMDAR; clioquinol treatment, WT and Shank2^−/−) was “not affected”, the “NMDAR function (NMDA-eEPSCs at −40 mV) in the presence of sSrc (40-58)” value (NMDAR; peptide 0.03 mg/mL in internal solution) was “effectively enhances NMDAR function” and the “NMDAR function (NMDA-eEPSCs at −40 mV) in the presence of Src (40-58)” value (NMDAR; peptide 0.03 mg/mL in internal solution, Shank2^−/− SC-CA1 synapses) was “fails to enhance NMDAR function”.
